Source: patent publication US20260027068A1, “METHODS OF ADM[…]-KETAMINE” (Perception Neuroscience, Inc., priority 2022, published 2026)
Like-named read-outs stand apart in the source and are kept apart here.

What was measured:
[1] = Systolic blood pressure (vital signs)
Protocol: The Investigational Medicinal Product (IMP) R(−)-ketamine hydrochloride in sterile water for intravenous injection was investigated as an […] treatment of TRD. The International Union of Pure and Applied Chemistry (IUPAC) name is of the IMP is (2R)-2-(2-chlorophenyl)-2-(methylamino)cyclohexan-1-one. Subjects received the solution at either 30 mg or 60 mg dose, or a placebo. The IMP or placebo was administered on Day 1 as a single IV infusion via an electronic infusion pump over 40 minutes. The duration of study participation for each subject was up to 29 days including a screening period, a 3-day in-clinic visit, and 2 follow-up visits. 101 subjects were enrolled in approximately 20 study centers in the EU and the US.
Tympanic or temporal temperature, heart rate, blood pressure (SBP/DBP), respiratory rate, and SpO2 were assessed. Blood pressure and pulse measurements will be assessed with a completely automated device while the subject is supine or semi-supine. Manual techniques will be used only if an automated device is not available. Blood pressure and pulse measurements should be preceded by at least 5 minutes of rest for the subject in a quiet setting without distractions (e.g., television, cell phones). An abnormal blood pressure value at screening may be repeated once after 5 minutes of relaxation to determine the subject's eligibility. Blood pressure was recorded using the same arm and position (supine or semi-supine) throughout the study, where possible. Vital signs (to be taken before blood collection for laboratory tests) consisted of 1 pulse and 3 blood pressure measurements (3 consecutive blood pressure readings will be recorded at intervals of at least 1 minute). The average of the 3 blood pressure readings was recorded in the CRF. A pulse oximeter was used to measure peripheral capillary oxygen saturation (SpO2) continuously from pre-dose until 4-hours post-dose. A pulse oximeter was clipped onto the finger or foot of the subject, and light will be sent through the finger or foot and measured on the other side.
In these tables, baseline value is defined as the last non-missing value prior to study drug administration.

rats = test: Precipitated withdrawal from morphine; type: in vivo
rodents [2] = conditions: 10 mg/kg; cited from earlier work
[3] = system: social defeat stress model in mice; conditions: cited from earlier work
rodents [4] = conditions: cited from earlier work
[5] = in vivo; cited from earlier work
subjects with TRD = conditions: single IV infusion 0.5 mg/kg; 7 subjects with TRD; cited from earlier work
CYP1A2 = test: In vitro CYP induction
[6] = Phase 1 single ascending dose plasma pharmacokinetics of 40-minute IV infusion of R(−)-ketamine and its metabolites; conditions: for Tmax: all dose levels 5 mg to 150 mg; for AUC(0-inf) / Cmax / AUC(0-t): iv
Protocol: This was a Phase 1 randomized, placebo-controlled, double-blind, single dose study conducted at one center. […] The pharmacokinetic (PK) population was 36 subjects, with 12 additional subjects receiving placebo. […] Subjects were male or female healthy subjects, 18 to 65 years of age. […] Cohort 1 was dosed at 5 mg, followed by Cohort 2 at 15 mg, Cohort 3 at 30 mg, Cohort 4 at 60 mg, Cohort 5 at 100 mg, and Cohort 6 at 150 mg R(−)-ketamine. […] In addition to the safety and tolerability data, the study also evaluated the dose-related PK of each 40-minute IV infusion of R(−)-ketamine.
To evaluate the pharmacokinetics of R(−)-ketamine, blood was drawn from subjects for PK analysis at the following sampling times: pre-dose (−30 minutes); and from the start of infusion (5, 10, and 15 minutes [±1 minute], 30 minutes [±5 minutes], 40 minutes [immediately prior to infusion completion], 1, 1.5, 2, and 3 hours [±5 minutes], 4 and 8 hours [±10 minutes], 12 and 24 hours [±15 minutes]).
Plasma PK parameters of R(−)-ketamine and its metabolites (norketamine, 6-hydroxynorketamine, and dehydronorketamine) evaluated on include the following: • Maximum plasma concentration (Cmax), • Time to Cmax (Tmax), • Area under the plasma concentration curve (AUC0-t, AUC0-∞) • Elimination rate constant (λz), • Half-live (t½) • Clearance (CL, P R(−)-ketamine only), • Volume of distribution (Vz, R(−)-ketamine only), and • Metabolite to parent ratios (area under curve [AUC] and Cmax).
The dose proportionality was assessed both visually and statistically using calculated Cmax and AUC values. […] Continuous variables: Descriptive statistics included the number of non-missing values (n), arithmetic mean, standard deviation (SD), median, minimum, and maximum values. […] For PK concentration data, the number of non-missing values, number of below limit of quantification (BLQ) values, arithmetic mean, SD, median, minimum, maximum, coefficient of variation (CV %), geometric mean, and geometric CV (geo CV %) values are presented. For PK parameter data, the number of non-missing values, arithmetic mean, SD, median, minimum, maximum, CV %, geometric mean, and geometric CV (geo CV %) values are presented.
Intravenous administration of allocated blinded study drug (Morning, Day 1) was infused over 40 minutes. Blood collection for plasma PK analysis occurred at infusion 5, 10, 15, 30, 40, 60, and 90 minutes, and 2, 3, 4, 8, and 12 hours after the start of infusion.
Plasma concentrations of R(−)-ketamine and its metabolites norketamine, 6-hydroxynorketamine, and dehydronorketamine were determined using a suitable validated analytical method with a lower limit of quantitation (LOQ) of 1 ng/mL.
The linearity of the increase in exposure with respect to the increasing dose administered was evaluated for Cmax and AUC for R(−)-ketamine and its metabolites (norketamine, 6-hydroxynorketamine and dehydronorketamine). […] The power model was used to estimate the slope parameter and the 90% confidence intervals for the slope.

[7] = both, human, plasma, intravenous

## CN[C@@]1(c2ccccc2Cl)CCCCC1=O.Cl [R(−)-ketamine, (2R)-2-(2-chlorophenyl)-2-(methylamino)cyclohexan-1-one]
[1]; 30 mg
  Subjects with change from baseline systolic blood pressure >40 mmHg, number: 0 n
  Subjects with change from baseline systolic blood pressure >40 mmHg, percent: 0.0%
  Subjects with post-baseline systolic blood pressure >180 mmHg, number: 0 n
  Subjects with post-baseline systolic blood pressure >180 mmHg, percent: 0.0%
[1]; 30 mg, Day 1, 15 minutes
  Systolic blood pressure: Mean: 116.8 mmHg
  Systolic blood pressure: Median: 119.0 mmHg
[1]; 30 mg, Day 1, 40 minutes
  Systolic blood pressure: Mean: 120.1 mmHg
  Systolic blood pressure: Median: 122.0 mmHg
[1]; 30 mg, Day 1, 60 minutes
  Systolic blood pressure: Mean: 117.7 mmHg
  Systolic blood pressure: Median: 119.5 mmHg
[1]; 30 mg, Day 1, 2 hours
  Systolic blood pressure: Mean: 118.7 mmHg
  Systolic blood pressure: Median: 122.0 mmHg
[1]; 30 mg, Day 1, 4 hours
  Systolic blood pressure: Mean: 119.0 mmHg
  Systolic blood pressure: Median: 120.0 mmHg
[1]; 30 mg, Day 1, 6 hours
  Systolic blood pressure: Mean: 118.0 mmHg
  Systolic blood pressure: Median: 120.0 mmHg
[1]; 30 mg, Day 2 - Discharge
  Systolic blood pressure: Mean: 118.0 mmHg
  Systolic blood pressure: Median: 120.0 mmHg
[1]; 30 mg, Day 8
  Systolic blood pressure: Mean: 119.2 mmHg
  Systolic blood pressure: Median: 121.0 mmHg
[1]; 30 mg, Day 15
  Systolic blood pressure: Mean: 123.4 mmHg
  Systolic blood pressure: Median: 122.0 mmHg
[1]; 30 mg, to Day 1, 15 minutes
  Systolic blood pressure: Change from Baseline, Mean: 1.2 mmHg
  Systolic blood pressure: Change from Baseline, Median: −1.0 mmHg
[1]; 30 mg, to Day 1, 40 minutes
  Systolic blood pressure: Change from Baseline, Mean: 2.0 mmHg
  Systolic blood pressure: Change from Baseline, Median: 0.0 mmHg
[1]; 30 mg, to Day 1, 60 minutes
  Systolic blood pressure: Change from Baseline, Mean: 2.4 mmHg
  Systolic blood pressure: Change from Baseline, Median: 2.5 mmHg
[1]; 30 mg, to Day 1, 2 hours
  Systolic blood pressure: Change from Baseline, Mean: 0.6 mmHg
  Systolic blood pressure: Change from Baseline, Median: 0.0 mmHg
[1]; 30 mg, to Day 1, 4 hours
  Systolic blood pressure: Change from Baseline, Mean: 0.9 mmHg
  Systolic blood pressure: Change from Baseline, Median: −1.0 mmHg
[1]; 30 mg, to Day 1, 6 hours
  Systolic blood pressure: Change from Baseline, Mean: −0.1 mmHg
  Systolic blood pressure: Change from Baseline, Median: −2.0 mmHg
[1]; 30 mg, to Day 2 - Discharge
  Systolic blood pressure: Change from Baseline, Mean: −0.1 mmHg
  Systolic blood pressure: Change from Baseline, Median: −1.0 mmHg
[1]; 30 mg, to Day 8
  Systolic blood pressure: Change from Baseline, Mean: 1.2 mmHg
  Systolic blood pressure: Change from Baseline, Median: 1.0 mmHg
[1]; 30 mg, to Day 15
  Systolic blood pressure: Change from Baseline, Mean: 5.2 mmHg
  Systolic blood pressure: Change from Baseline, Median: 3.0 mmHg
[1]; 60 mg
  Subjects with change from baseline systolic blood pressure >40 mmHg, number: 1 n
  Subjects with change from baseline systolic blood pressure >40 mmHg, percent: 2.9%
  Subjects with post-baseline systolic blood pressure >180 mmHg, number: 0 n
  Subjects with post-baseline systolic blood pressure >180 mmHg, percent: 0.0%
[1]; 60 mg, Day 1, 15 minutes
  Systolic blood pressure: Mean: 123.6 mmHg
  Systolic blood pressure: Median: 124.5 mmHg
[1]; 60 mg, Day 1, 40 minutes
  Systolic blood pressure: Mean: 123.0 mmHg
  Systolic blood pressure: Median: 122.0 mmHg
[1]; 60 mg, Day 1, 60 minutes
  Systolic blood pressure: Mean: 123.9 mmHg
  Systolic blood pressure: Median: 124.0 mmHg
[1]; 60 mg, Day 1, 2 hours
  Systolic blood pressure: Mean: 119.0 mmHg
  Systolic blood pressure: Median: 120.0 mmHg
[1]; 60 mg, Day 1, 4 hours
  Systolic blood pressure: Mean: 119.1 mmHg
  Systolic blood pressure: Median: 121.0 mmHg
[1]; 60 mg, Day 1, 6 hours
  Systolic blood pressure: Mean: 119.7 mmHg
  Systolic blood pressure: Median: 119.5 mmHg
[1]; 60 mg, Day 2 - Discharge
  Systolic blood pressure: Mean: 120.8 mmHg
  Systolic blood pressure: Median: 122.0 mmHg
[1]; 60 mg, Day 8
  Systolic blood pressure: Mean: 123.2 mmHg
  Systolic blood pressure: Median: 122.0 mmHg
[1]; 60 mg, Day 15
  Systolic blood pressure: Mean: 120.3 mmHg
  Systolic blood pressure: Median: 121.0 mmHg
[1]; 60 mg, to Day 1, 15 minutes
  Systolic blood pressure: Change from Baseline, Mean: 4.4 mmHg
  Systolic blood pressure: Change from Baseline, Median: 1.5 mmHg
[1]; 60 mg, to Day 1, 40 minutes
  Systolic blood pressure: Change from Baseline, Mean: 4.9 mmHg
  Systolic blood pressure: Change from Baseline, Median: 3.0 mmHg
[1]; 60 mg, to Day 1, 60 minutes
  Systolic blood pressure: Change from Baseline, Mean: 5.3 mmHg
  Systolic blood pressure: Change from Baseline, Median: 5.0 mmHg
[1]; 60 mg, to Day 1, 2 hours
  Systolic blood pressure: Change from Baseline, Mean: 0.9 mmHg
  Systolic blood pressure: Change from Baseline, Median: 1.0 mmHg
[1]; 60 mg, to Day 1, 4 hours
  Systolic blood pressure: Change from Baseline, Mean: 1.0 mmHg
  Systolic blood pressure: Change from Baseline, Median: 0.0 mmHg
[1]; 60 mg, to Day 1, 6 hours
  Systolic blood pressure: Change from Baseline, Mean: 1.4 mmHg
  Systolic blood pressure: Change from Baseline, Median: 2.0 mmHg
[1]; 60 mg, to Day 2 - Discharge
  Systolic blood pressure: Change from Baseline, Mean: 2.7 mmHg
  Systolic blood pressure: Change from Baseline, Median: 1.0 mmHg
[1]; 60 mg, to Day 8
  Systolic blood pressure: Change from Baseline, Mean: 5.0 mmHg
  Systolic blood pressure: Change from Baseline, Median: 2.0 mmHg
[1]; 60 mg, to Day 15
  Systolic blood pressure: Change from Baseline, Mean: 2.1 mmHg
  Systolic blood pressure: Change from Baseline, Median: 0.0 mmHg
rats
  Effect on symptoms of precipitated withdrawal from morphine: significantly ameliorated the symptoms of precipitated withdrawal from morphine
Rodents [2]
  Antidepressant effect compared with S(+)-ketamine: longer acting and more potent effects than S(+)-ketamine
[3]
  Anti-depressant effects: more potent and long lasting anti-depressant effects when compared to S(+)-ketamine
Rodents [4]; 20 mg/kg
  Conditioned place preference: did not cause conditioned place preference
Rodents [4]; 40 mg/kg
  Conditioned place preference: did cause conditioned place preference
[5]
  Side effects (hyperlocomotion, prepulse inhibition deficit, drug dependence): did not
Subjects with TRD
  Antidepressant effects and safety profile: fast-onset and sustained antidepressant effects with a favorable safety profile
CYP1A2
  CYP1A2 induction: inducer
[6]; after start of infusion, LOQ 1 ng/mL
  Earliest timepoint at which concentrations were quantifiable in all subjects: 5 min
[6]; [7]
  Vd: 345 to 921 L
  clearance: 1280 to 1630 mL/min
  half-life: 184 to 433 min
[6]; both, human, plasma, intravenous, Median plasma Tmax
  Tmax: 40 min
[6]; both, human, plasma, intravenous, Plasma Tmax range
  Tmax: 15 to 40 min
[6]; both, human, plasma, 5 mg
  AUC(0-inf): 64 ng·h/mL
  Cmax: 33.9 ng/mL
[6]; both, human, plasma, 5 mg, Arithmetic mean AUC0-24h, 5 mg R(−)-ketamine IV
  AUC(0-t): 63.5 ng·h/mL
[6]; both, human, plasma, 5 mg, Arithmetic mean AUC0-t, 5 mg R(−)-ketamine IV
  AUC(0-t): 57.5 ng·h/mL
[6]; both, human, plasma, 150 mg
  AUC(0-inf): 1820 ng·h/mL
  Cmax: 780 ng/mL
[6]; both, human, plasma, 150 mg, Arithmetic mean AUC0-24h, 150 mg R(−)-ketamine IV
  AUC(0-t): 1720 ng·h/mL
[6]; both, human, plasma, 150 mg, Arithmetic mean AUC0-t, 150 mg R(−)-ketamine IV
  AUC(0-t): 1720 ng·h/mL
